Assay results: patent US10709684B2, “SGLT-2 inhibitors for treating metabolic disorders in patients with renal impairment or chronic kidney disease” (Merck Sharp & Dohme Corp., priority 2014, dated 2020)
Like-named read-outs stand apart in the source and are kept apart here.

How the values were obtained:
Type in all cases: in vivo, human
[1] = Phase 1 single dose study: pharmacokinetics of ertugliflozin in renal impairment; conditions: single 15 mg oral dose; for AUC(0-inf) / Cmax: geometric mean
Source text: (§1) Results of a Phase I, Single Dose Study to Study the Effect of Renal Impairment on the Pharmacokinetics and Pharmacodynamics of Ertugliflozin in Subjects with Type 2 Diabetes Mellitus (T2DM)
(§2) Ertugliflozin inhibits renal glucose reabsorption resulting in urinary glucose excretion, thereby reducing plasma glucose and HbA1c. The glycemic efficacy of SGLT2 inhibitors depends on the amount of glucose filtered through the kidney and the kidney is potentially a site of ertugliflozin metabolism. As renal impairment (RI) is a co-morbidity of T2DM, this study evaluated the effect of RI on the pharmacokinetics, pharmacodynamics (as measured by 24-hour urinary glucose excretion [UGE24]), safety, and tolerability of ertugliflozin in subjects with T2DM.
(§3) In this Phase 1, multi-center, open-label study, a single 15 mg oral dose of ertugliflozin was administered in the fasted state to healthy and T2DM subjects with normal renal function (estimated glomerular filtration rate [eGFR]≥90 mL/min) and in T2DM subjects with mild RI (eGFR 60-89 mL/min), moderate RI (eGFR 30-59 mL/min) and severe RI (eGFR<30 mL/min). Serial blood samples and urine samples at specified intervals were collected for 96 hours post-dose for pharmacokinetic evaluation and for measurement of UGE24.

[2] = tested on: urinary glucose excretion; test: Phase 1 single dose study: pharmacodynamics, 24-hour urinary glucose excretion (UGE24); conditions: single 15 mg oral dose; for Change from baseline in UGE24: fasted, geometric mean
Source text: as §1, §2, §3

[3] = tested on: healthy and T2DM subjects; test: Phase 1 single dose study: safety and tolerability; conditions: single 15 mg dose; subjects with normal renal function and T2DM subjects with renal impairment
Source text: as §2, §3

[4] = Healthy Normal renal function (eGFR>=90 mL/min), n = 8, fasted
[5] = T2DM Normal renal function (eGFR>=90 mL/min), n = 6, fasted

CCOc1ccc(Cc2cc([C@]34OC[C@](CO)(O3)[C@@H](O)[C@H](O)[C@H]4O)ccc2Cl)cc1 [Ertugliflozin, (1S,2S,3S,4R,5S)-5-[4-chloro-3-(4-ethoxy-benzyl)-phenyl]-1-hydroxymethyl-6,8-dioxa-bicyclo[3.2.1]octane-2,3,4-triol] showed an AUC(0-inf) [1, 4] of 1.236 µg·h/mL, a Cmax [1, 4] of 0.219 µg/mL and a Cmax ([1]; T2DM Mild RI (eGFR 60-89 mL/min), n = 8, fasted) of 0.313 µg/mL. The Cmax ([1]; T2DM Moderate RI (eGFR 30-59 mL/min), n = 8, fasted) was 0.306 µg/mL, the AUC(0-inf) [1, 5] was 1.199 µg·h/mL and the Cmax [1, 5] was 0.216 µg/mL. The Cmax ([1]; T2DM Severe RI (eGFR<30 mL/min), n = 6, fasted) was 0.196 µg/mL, the “effect of renal insufficiency on systemic exposure” value ([1]; compared to subjects with normal renal function) was “moderately increased” and the AUC(0-inf) ([1]; human, in vivo, po, 15 mg, T2DM Mild RI (eGFR 60-89 mL/min), n = 8, fasted, read-out: AUC0-inf) was 1.91 µg·h/mL. For the same molecule, the AUC(0-inf) ([1]; human, in vivo, po, 15 mg, T2DM Moderate RI (eGFR 30-59 mL/min), n = 8, fasted, read-out: AUC0-inf) was 2.08 µg·h/mL, the AUC(0-inf) ([1]; human, in vivo, po, 15 mg, T2DM Severe RI (eGFR<30 mL/min), n = 6, fasted, read-out: AUC0-inf) was 1.9 µg·h/mL and the “exposures in healthy subjects versus T2DM subjects with normal renal function” value ([1]; fasted) was “similar”. The “Change from baseline in UGE24” value ([2]; Healthy Normal renal function (eGFR>=90 mL/min), n = 8) was 46.3 g, the “Change from baseline in UGE24” value ([2]; T2DM Mild RI (eGFR 60-89 mL/min), n = 8) was 36.0 g and the “Change from baseline in UGE24” value ([2]; T2DM Moderate RI (eGFR 30-59 mL/min), n = 8) was 27.6 g. For the same molecule, the “Change from baseline in UGE24” value ([2]; T2DM Normal renal function (eGFR>=90 mL/min), n = 6) was 72.3 g, the “Change from baseline in UGE24” value ([2]; T2DM Severe RI (eGFR<30 mL/min), n = 6) was 10.1 g and the “UGE24 trend with renal function” value ([2]; despite the higher exposure) was “decreased with declining renal function”. For the same molecule, the tolerability [3] was “well tolerated”.
